Values belong to the compound of their own block, whether it stands above or below them.
Key:
[1] = target: T1, human RNR (histidine tagged human M1 and human M2 proteins) (Homo sapiens, UniProt P23921); experiment: Human RNR inhibition effect (dCDP formation from CDP); assay type: biochemical; conditions: 10 μM CDP, 37° C. for 30 minutes, read-out: RNR inhibitory activity IC50
T1 construct: made in house; host or cells: Escherichia coli
T1 sequence (P23921 1-792): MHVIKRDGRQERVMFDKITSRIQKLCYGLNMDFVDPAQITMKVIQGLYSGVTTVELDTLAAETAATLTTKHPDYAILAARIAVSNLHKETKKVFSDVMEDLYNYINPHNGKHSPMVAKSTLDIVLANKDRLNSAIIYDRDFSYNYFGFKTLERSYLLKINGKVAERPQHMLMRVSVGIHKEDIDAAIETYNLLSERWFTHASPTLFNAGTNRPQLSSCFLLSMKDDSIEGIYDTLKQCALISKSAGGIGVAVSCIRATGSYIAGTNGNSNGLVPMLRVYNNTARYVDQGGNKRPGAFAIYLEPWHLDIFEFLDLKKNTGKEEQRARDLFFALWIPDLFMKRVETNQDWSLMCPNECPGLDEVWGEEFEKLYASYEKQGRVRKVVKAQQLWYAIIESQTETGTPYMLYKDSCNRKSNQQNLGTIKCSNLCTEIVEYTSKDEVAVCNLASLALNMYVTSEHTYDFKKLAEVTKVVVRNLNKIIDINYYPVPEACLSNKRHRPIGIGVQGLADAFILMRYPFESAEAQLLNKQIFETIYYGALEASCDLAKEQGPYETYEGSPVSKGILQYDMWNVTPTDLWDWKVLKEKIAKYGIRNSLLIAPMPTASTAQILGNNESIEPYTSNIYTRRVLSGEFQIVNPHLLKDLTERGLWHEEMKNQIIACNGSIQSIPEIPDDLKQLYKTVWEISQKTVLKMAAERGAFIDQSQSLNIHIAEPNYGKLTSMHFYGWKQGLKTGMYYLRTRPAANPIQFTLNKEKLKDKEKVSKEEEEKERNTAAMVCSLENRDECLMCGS
Procedure, shortened: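 His-tagged human M1 (isoform 1) and N-terminal 59-aa-truncated M2 (isoform 2), E. coli-expressed, Ni-purified, preincubated 20 min with compound (1% DMSO). Reaction with 10 μM CDP, 2 mM ATP, 0.24 mM NADPH, 6 mM DTT, 4 mM Mg acetate, 100 mM KCl, 50 mM HEPES pH 7.2, 30 min at 37° C. dCDP formed quantified by reverse-phase HPLC after heat stop.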

MV-4-11 = experiment: Antitumor effect in human-derived blood cancer cell line (MV-4-11) subcutaneous transplantation model (in vivo); parameters: species or system nude mouse (BALB/cA Jcl-nu/nu); conditions: oral, 100 mg/kg/day once per day for 14 days; RTV vs control group, Student-t test, p<0.05
Method: A human-derived blood cancer cell line MV-4-11 was transplanted subcutaneously into a nude mouse (BALB/cA Jcl-nu/nu, CLEA Japan, Inc.), and at the time when the tumor volume of the nude mouse on which the engrafted tumor reached 100 to 300 mm^3, four mice were assigned to each group by random stratification so that the average of the tumor volumes of each group was uniform (day 0), and the Example compound was orally administered daily at 100 mg/kg/day once per day for 14 days. Example Compound dosing solutions were prepared using 0.5% HPMC.
An electric balance for animals was used in body weight measurement. Rate of change in body weight on day n (BWCn) from body weight on day n (BWn) was calculated according to the following equation.
Rate of change in body weight BWCn (%)=(BWn−BW0)/BW0×100
Tumor volume (TV) was calculated according to the following equation by sandwiching and measuring the major axis and the minor axis with a digital caliper.
Tumor volume (mm^3)=Major axis (mm)×Minor axis (mm)×Minor axis (mm)/2
In order to compare the chronological transition of proliferation of tumor for the administration of each compound, relative tumor volume (RTV) setting the tumor volume at the time of grouping as 1 as the tumor proliferation rate was calculated according to the following formula, and the transition of the average value of RTV of each individual are shown in FIGS. 1 to 4.
RTV=(tumor volume at the day of tumor volume measurement)/(tumor volume at the time of the grouping)

HCC 1806 cells = experiment: Cell proliferation inhibitory effect on human breast cancer cell line; assay type: cell-based; conditions: HCC1806, 72 h, crystal violet, read-out: Cell growth suppression IC50
Method: Human derived breast cancer cell line HCC 1806 cells (American Type Culture Collection, ATCC) were daily passaged at a cell density not exceeding 80% in ATCC recommended Roswell Park Memorial Institute medium (RPMI-1640) containing 10% fetal bovine serum (FBS). In order to start the test of cell proliferation inhibitory activity, HCC 1806 cells were suspended in the above medium, after seeing at 180 μL in each well of a 96-well flat bottom plate so that the number of cells per well was 2,000, the cells were cultured at 37° C. for 1 day in an incubator containing 5% carbon dioxide gas.
On the next day, the Example compound was dissolved in DMSO, and 20 μL of a drug additive solution diluted serially with distilled water to 10 times of the final concentration was added to each well of the culture plate of the cells, and the cells were cultured at 37° C. for 72 hours in an incubator containing 5% carbon dioxide gas. After culturing for 72 hours, 20 μL of glutaraldehyde was added to each well and allowed to stand for 30 minutes, then the plate was washed 10 times with water and was dried. 100 μL of a stain solution (0.05% crystal violet in a 20% methanol solution) was added to each well and allowed to stand for 30 minutes, then the plate was washed 10 times with water and was dried. 100 μL of an extract solution (0.1 N NaH2PO4: 100% ethanol=1:1) was added to each well and mixed, and the mixture was measured at a wavelength of 540 nm using a plate reader (MTP-450 manufactured by Corona Electric Co., Ltd.).
The growth inhibition rate was calculated from the following formula, and the concentration (IC50 (μM)) of a compound inhibiting 50% was determined.
Growth inhibition rate (%){(C-B)−(T-B)}(C-B)×100
T: Absorbance of well to which Example compound was added
C: Absorbance of wells to which no Example compound was added
B: Absorbance of wells to which no cell was added

[2] = tested on: A549 (Human lung cancer cell line); experiment: Effect of combination of sulfonamide compound and other antitumor agent (CellTiter-Glo, combination index): A549
Method: (§1) Each cell line was seeded at 90 L/well to a 96-well culture plate (Thermo Fisher Scientific, Inc.) according to the above tables. The cell-seeded plate was cultured in an incubator set to 37° C. and 500 CO2. On the day following seeding, varying concentrations of the sulfonamide compound and the other antitumor agent were added in combination to the cells. […] The serial dilutions of each compound, or DW was added at 5μL/well to the plate such that each compound and DW, or the sulfonamide compound and the other antitumor agent were combined. […] The plate after the addition was cultured at 37° C. for 3 days under 5% CO2 conditions.
(§2) Three days later, CellTiter-Glo(R) 2.0 Reagent (Promega Corporation) was added at 100 μL/well, and the amount of luminescence was measured using a plate reader EnSpire(R) Multimode Plate Reader (PerkinElmer Co., Ltd.).
(§3) An average value from 3 wells was calculated as to each drug condition from the obtained data, and cell survival rate normalized against control wells supplemented with the vehicle (DW) was calculated. A Fa (fractional inhibition) value was calculated by subtracting the cell survival rate from 1.

[3] = tested on: CFPAC-1 (Human pancreatic cancer cell line); experiment: Effect of combination of sulfonamide compound and other antitumor agent (CellTiter-Glo, combination index): CFPAC-1;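 also: cells exposed to both agents together for 3 days, viability read by luminescence, normalized to vehicle-treated control wells, mean of triplicate wells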
Method: as §1, §2, §3

[4] = tested on: HCT116 (Human large intestine cancer cell line); experiment: Effect of combination of sulfonamide compound and other antitumor agent (CellTiter-Glo, combination index): HCT116; assay type: cell-based
Method: as §1, §2, §3

[5] = Example Compound 14 874 nM + Prexasertib 1.97 nM
[6] = Example Compound 14 1310 nM + Prexasertib 2.96 nM
[7] = Example Compound 14 1970 nM + Prexasertib 4.45 nM
[8] = Example Compound 209A 188 nM + Prexasertib 1.97 nM
[9] = Example Compound 209A 282 nM + Prexasertib 2.96 nM
[10] = Example Compound 235A 231 nM + Prexasertib 1.97 nM
[11] = Example Compound 235A 346 nM + Prexasertib 2.96 nM
[12] = Example Compound 235A 520 nM + Prexasertib 4.44 nM
[13] = Example Compound 5 311 nM + Prexasertib 1.89 nM
[14] = Example Compound 5 466 nM + Prexasertib 2.84 nM
[15] = Example Compound 5 700 nM + Prexasertib 4.26 nM
[16] = Example Compound 14 616 nM + Prexasertib 1.89 nM
[17] = Example Compound 14 925 nM + Prexasertib 2.84 nM
[18] = Example Compound 14 1390 nM + Prexasertib 4.27 nM
[19] = Example Compound 209A 151 nM + Prexasertib 1.90 nM
[20] = Example Compound 209A 226 nM + Prexasertib 2.84 nM
[21] = Example Compound 235A 214 nM + Prexasertib 1.89 nM
[22] = Example Compound 235A 321 nM + Prexasertib 2.84 nM
[23] = Example Compound 235A 481 nM + Prexasertib 4.26 nM
[24] = Example Compound 5 567 nM + Prexasertib 10.7 nM
[25] = Example Compound 5 851 nM + Prexasertib 16.1 nM
[26] = Example Compound 14 1000 nM + Prexasertib 7.14 nM
[27] = Example Compound 14 1500 nM + Prexasertib 10.7 nM
[28] = Example Compound 14 2250 nM + Prexasertib 16.1 nM
[29] = Example Compound 209A 187 nM + Prexasertib 7.13 nM
[30] = Example Compound 209A 281 nM + Prexasertib 10.7 nM
[31] = Example Compound 209A 421 nM + Prexasertib 16.1 nM
[32] = HCT116, Example Compound 235A 317 nM combined with Prexasertib 7.15 nM, molar ratio 1:0.02255
[33] = HCT116, Example Compound 235A 475 nM combined with Prexasertib 10.7 nM, molar ratio 1:0.02255
[34] = HCT116, Example Compound 235A 712 nM combined with Prexasertib 16.1 nM, molar ratio 1:0.02255

Structure (SMILES): Cc1c(Cl)ccc(F)c1[C@@H](C)[C@H](NS(=O)(=O)c1ccc(Cl)c2c1OCCC2(C)O)c1n[nH]c(=O)o1 (single isomer, unassigned) [Example 228A]
- antitumor effect (relative tumor volume, RTV) (MV-4-11): antitumor effect

Structure (SMILES): Cc1c(Cl)ccc(F)c1[C@@H](C)[C@H](NS(=O)(=O)c1ccc(Cl)cc1C(N)=O)c1n[nH]c(=O)o1 [Example 14, 5-chloro-2-(N-((1S,2R)-2-(3-chloro-6-fluoro-2-methylphenyl)-1-(5-oxo-4,5-dihydro-1,3,4-oxadiazol-2-yl)propyl)sulfamoyl)benzamide]
- IC50 [1]: 250 nM
- antitumor effect (relative tumor volume, RTV) (MV-4-11): antitumor effect

Structure (SMILES): CC(=O)OC1(C)CCOc2c(S(=O)(=O)N[C@H](c3n[nH]c(=O)o3)[C@H](C)c3c(F)ccc(C)c3C)ccc(Cl)c21 (stereo partly drawn) [Example 95, 5-chloro-8-(N-((1S,2R)-2-(6-fluoro-2,3-dimethylphenyl)-1-(5-oxo-4,5-dihydro-1,3,4-oxadiazol-2-yl)propyl)sulfamoyl)-4-methylchroman-4-ylacetate]
- IC50 [1]: 140 nM
- IC50 (HCC 1806 cells): 140 nM

Structure (SMILES): COc1cccc(OCCCN)c1-c1cc(Nc2cnc(C#N)cn2)n[nH]1 [Prexasertib, prexasertib]
- CI value [2, 5]: 0.277
- Fa value [2, 5]: 0.4973
- CI value [2, 6]: 0.193
- Fa value [2, 6]: 0.7864
- CI value [2, 7]: 0.177
- Fa value [2, 7]: 0.8986
- CI value [2, 8]: 0.258
- Fa value [2, 8]: 0.5015
- CI value [2, 9]: 0.189
- Fa value [2, 9]: 0.7685
- CI value [2, 10]: 0.331
- Fa value [2, 10]: 0.4315
- CI value [2, 11]: 0.191
- Fa value [2, 11]: 0.7784
- CI value [2, 12]: 0.174
- Fa value [2, 12]: 0.8915
- CI value [3, 13]: 0.579
- Fa value [3, 13]: 0.3644
- CI value [3, 14]: 0.413
- Fa value [3, 14]: 0.6946
- CI value [3, 15]: 0.525
- Fa value [3, 15]: 0.7564
- CI value [3, 16]: 0.886
- Fa value [3, 16]: 0.2455
- CI value [3, 17]: 0.452
- Fa value [3, 17]: 0.6771
- CI value [3, 18]: 0.514
- Fa value [3, 18]: 0.7725
- CI value [3, 19]: 0.735
- Fa value [3, 19]: 0.3163
- CI value [3, 20]: 0.558
- Fa value [3, 20]: 0.6872
- CI value [3, 21]: 0.645
- Fa value [3, 21]: 0.3469
- CI value [3, 22]: 0.344
- Fa value [3, 22]: 0.6687
- CI value [3, 23]: 0.372
- Fa value [3, 23]: 0.7578
- CI value [4, 24]: 0.289
- Fa value [4, 24]: 0.7563
- CI value [4, 25]: 0.180
- Fa value [4, 25]: 0.9499
- CI value [4, 26]: 0.535
- Fa value [4, 26]: 0.3054
- CI value [4, 27]: 0.208
- Fa value [4, 27]: 0.8469
- CI value [4, 28]: 0.174
- Fa value [4, 28]: 0.9453
- CI value [4, 29]: 0.792
- Fa value [4, 29]: 0.1703
- CI value [4, 30]: 0.230
- Fa value [4, 30]: 0.8191
- CI value [4, 31]: 0.173
- Fa value [4, 31]: 0.9441
- CI value [4, 32]: 0.557
- Fa value [4, 32]: 0.3131
- CI value [4, 33]: 0.224
- Fa value [4, 33]: 0.8595
- CI value [4, 34]: 0.197
- Fa value [4, 34]: 0.9459

Now from value to compound, other results behind:

- IC50 [1]: 100 nM
Structure (SMILES): Cc1c(Cl)ccc(F)c1[C@@H](C)[C@H](NS(=O)(=O)c1ccc(Cl)c2c1OCCC2(C)O)c1n[nH]c(=O)o1 (single isomer, unassigned) [Example 209A]
- antitumor effect (relative tumor volume, RTV) (MV-4-11): antitumor effect

- IC50 [1]: 80 nM
Structure (SMILES): Cc1c(Br)ccc(F)c1[C@@H](C)[C@H](NS(=O)(=O)c1ccc(Cl)c2c1OCCC2(C)O)c1n[nH]c(=O)o1 (single isomer, unassigned) [Example 222A]
- antitumor effect (relative tumor volume, RTV) (MV-4-11): antitumor effect

- IC50 [1]: 80 nM
- IC50 (HCC 1806 cells): 140 nM
Structure (SMILES): [2H]C([2H])([2H])C1(O)CCOc2c(S(=O)(=O)N[C@H](c3n[nH]c(=O)o3)[C@H](C)c3c(F)ccc(Cl)c3C)ccc(Cl)c21 (single isomer, unassigned) [Example 228A]

- IC50 [1]: 80 nM
Structure (SMILES): Cc1ccc(F)c([C@@H](C)[C@H](NS(=O)(=O)c2ccc(Cl)c3c2OCCC3O)c2n[nH]c(=O)o2)c1C (single isomer, unassigned) [Example 235A]
- antitumor effect (relative tumor volume, RTV) (MV-4-11): antitumor effect

Source: patent US20200405697A1, “Antitumor Agent” (Taiho Pharmaceutical Co., Ltd, priority 2017, published 2020)
